Laboratory results from patent US20100016335A1, “NOVEL AMINOPYRIDINE DERIVATIVES HAVING AURORA A SELECTIVE INHIBITORY ACTION” (priority 2006, published 2010).
Counter-ions that a name gives are not always drawn.

Key:
[1] = molecular target: T1, human Aurora A (Homo sapiens, UniProt O14965); assay: Aurora A inhibitory activity (IMAP fluorescence polarization phosphorylation assay); assay type: biochemical; details: 20 μM ATP, 30° C., 120 minutes
T1 construct: His (N); made in house; host or cells: Escherichia coli BL21-CodonPlus(DE3)-RIL
T1 sequence (O14965 1-403): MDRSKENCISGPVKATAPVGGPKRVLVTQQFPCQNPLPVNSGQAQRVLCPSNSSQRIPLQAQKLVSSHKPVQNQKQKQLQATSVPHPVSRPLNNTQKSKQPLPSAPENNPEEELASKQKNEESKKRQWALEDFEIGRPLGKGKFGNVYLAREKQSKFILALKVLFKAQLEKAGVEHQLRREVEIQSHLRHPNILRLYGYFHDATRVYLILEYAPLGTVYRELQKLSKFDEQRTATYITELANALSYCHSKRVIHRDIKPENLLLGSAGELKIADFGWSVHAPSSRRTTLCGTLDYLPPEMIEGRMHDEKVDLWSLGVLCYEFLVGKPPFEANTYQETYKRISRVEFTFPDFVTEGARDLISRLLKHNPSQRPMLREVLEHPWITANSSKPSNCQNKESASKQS
Source text: cDNA of N-terminal His-tagged human Aurora A was integrated into an expression vector, which was then highly expressed in Escherichia coli BL21-CodonPlus(DE3)-RIL cells. The Escherichia coli was harvested and lysed, and then the His-tagged human Aurora A protein was applied onto a nickel chelate column and eluted from the column with imidazole. The active fractions were desalted with a desalting column to give a purified enzyme.
For the phosphorylation reaction, the method by Upstate, Inc. [Kinase Profiler™ Assay Protocols] was referred to, and phosphorylation of the substrate was detected using IMAP® technology (Molecular Devices, Co. Ltd.) (Gaudet E W. et. al, J. Biomol. Screen, 8, 164-175 (2003)). Concretely, the phosphorylation reaction and the detection were carried out as follows:
The phosphorylation reaction was conducted using 384 well plate, and the reaction volume was 10 μl/well. The reaction buffer is comprised of 50 mM Tris-chloride buffer (pH 7.4), 15 mM magnesium acetate, and 0.2 mM ethylenediamine-N,N,N′,N′-tetraacetic acid (EDTA). Thereto, the purified Aurora A protein, 100 nM of the peptide substrate, and 20 μM of adenosine 5′-triphosphate (ATP) were added, and then the reaction was carried out at 30° C. for 120 minutes.
Thereafter, in order to terminate and detect the reaction, 30 μl of the IMAP (registered trademark) binding reagent (IMAP Progressive Binding Reagent, R7284) that had been diluted (1:400) in the 1×IMAP binding buffer A (IMAP Progressive Binding Buffer A, 5× stock, R7282) was added to each well. The solution stood still for 60 minutes in the dark, and then fluorescence polarization was measured using a high-end microplate reader (excitation wavelength: 485 nm; emission wavelength: 520 nm).
(§1) The compound to be tested was added to the reaction system such that a dilution series of the compound in dimethylsulfoxide (DMSO) was prepared, and then 0.5 μL of this solution was added for the testing to each well. Each control well was provided by adding 0.5 μL of DMSO to the well in place of the DMSO solution containing the compound to be tested.

[2] = molecular target: T2, GST-tagged human Aurora B(AurB)/His-tagged human INCENP complex proteins (Homo sapiens, UniProt Q96GD4); assay: Aurora B inhibitory activity (Method A, IMAP assay kit); assay type: biochemical; details: 40 μM ATP, 25° C., 45 minutes
T2 construct: GST; purchased Carna Biosciences, Inc
T2 sequence (Q96GD4 whole entry): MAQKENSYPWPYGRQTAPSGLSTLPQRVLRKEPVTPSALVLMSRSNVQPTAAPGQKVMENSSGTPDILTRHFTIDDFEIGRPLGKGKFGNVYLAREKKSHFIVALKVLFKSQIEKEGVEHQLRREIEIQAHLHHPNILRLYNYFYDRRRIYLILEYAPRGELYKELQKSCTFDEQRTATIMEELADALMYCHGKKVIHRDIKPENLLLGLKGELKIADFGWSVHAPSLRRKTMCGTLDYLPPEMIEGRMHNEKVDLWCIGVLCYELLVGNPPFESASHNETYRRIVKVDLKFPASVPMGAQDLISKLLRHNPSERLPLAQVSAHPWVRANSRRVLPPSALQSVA
T2 sequence (Q9NQS7 803-916 partner limits assumed): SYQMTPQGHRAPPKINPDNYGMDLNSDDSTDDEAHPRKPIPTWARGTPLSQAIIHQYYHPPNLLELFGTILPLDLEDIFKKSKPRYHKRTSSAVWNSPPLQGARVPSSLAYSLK
Experimental: An assay development kit for IMAP (registered trademark) (Aurora B), purchased from Carna Biosciences, Inc., was used for phosphorylation reaction, and the phosphorylation of a substrate was detected using the IMAP technology. […] Using the same, the phosphorylation reaction was conducted in accordance with a partially revised protocol attached to the kit, and then the phosphorylation of the substrate was detected using the IMAP technology.
For the phosphorylation reaction, 384 well plate was used, and the reaction volume was 10 μl/well. The composition of the reaction buffer (assay buffer) is comprised of 20 mM of HEPES buffer (pH 7.4), 0.01% Tween-20, and 2 mM of dithiothreitol (DTT). Thereto, AurB/INCENP complex protein, 100 nM of the substrate, and 40 μM of ATP, and 1 mM of magnesium salt were added, and then the reaction was conducted at 25° C. for 45 minutes. Thereafter, in order to terminate and detect the reaction, 30 μl of the IMAP (registered trademark) binding reagent (IMAP Progressive Binding Reagent, R7284) that had been diluted (1:400) in the 1× IMAP binding buffer A (IMAP Progressive Binding Buffer A, 5× stock, R7282) was added to each well.
as §1, with “DMSO” for “dimethylsulfoxide (DMSO)”

| IC50 [1] | IC50 [2] | SMILES |
| --- | --- | --- |
| 0.09 nM | 95 nM | O=C(O)[C@]1(Cc2cc(Br)cc(Nc3nccs3)n2)CC[C@@H](Oc2cccc(Cl)c2F)CC1 [Example 40, trans-1-((4-bromo-6-(1,3-thiazol-2-ylamino)pyridin-2-yl)methyl)-4-(3-chloro-2-fluorophenoxy)cyclohexanecarboxylic acid hydrochloride] |
| 4.1 nM | > 1000 nM | Fc1c(O[C@H]2CC[C@](Cc3cccc(Nc4cc[nH]n4)n3)(c3nnco3)CC2)cccc1C(F)(F)F [Example 22, 6-((trans-4-(2-fluoro-3-(trifluoromethyl)phenoxy)-1-(1,3,4-oxadiazol-2-yl)cyclohexyl)methyl)-N-1H-pyrazol-3-ylpyridin-2-amine] |
| 0.45 nM | 350 nM | Fc1c(Cl)cccc1O[C@H]1CC[C@](Cc2cccc(Nc3cc[nH]n3)n2)(c2nn[nH]n2)CC1 [Example 17, 6-((trans-4-(3-chloro-2-fluorophenoxy)-1-(2H-tetrazol-5-yl)cyclohexyl)methyl)-N-1H-pyrazol-3-ylpyridin-2-amine trifluoroacetate] |
| 1.6 nM | > 1000 nM | N#C[C@]1(Cc2cccc(Nc3cc[nH]n3)n2)CC[C@@H](Oc2cccc(Cl)c2F)CC1 [Example 16, trans-4-(3-chloro-2-fluorophenoxy)-1-((6-(1H-pyrazol-3-ylamino)pyridin-2-yl)methyl)cyclohexanecarbonitrile] |
| 2.5 nM | > 1000 nM | CNC(=O)[C@]1(Cc2cccc(Nc3cc[nH]n3)n2)CC[C@@H](Oc2cccc(Cl)c2F)CC1 [Example 12, trans-4-(3-chloro-2-fluorophenoxy)-N-methyl-1-((6-(1H-pyrazol-3-ylamino)pyridin-2-yl)methyl)cyclohexanecarboxamide] |
| 0.18 nM | 110 nM | Cc1cc(Nc2cc[nH]n2)nc(C[C@]2(c3n[nH]c(=O)o3)CC[C@H](Oc3cccc(Cl)c3F)CC2)n1 [Example 41, 5-(trans-4-(3-chloro-2-fluorophenoxy)-1-((4-methyl-6-(1H-pyrazol-3-ylamino)pyrimidin-2-yl)methyl)cyclohexyl)-1,3,4-oxadiazol-2(3H)-one trifluoroacetate] |
| 1.3 nM | > 1000 nM | CN(C)C(=O)[C@]1(Cc2cccc(Nc3cc[nH]n3)n2)CC[C@@H](Oc2cccc(Cl)c2F)CC1 [Example 13, trans-4-(3-chloro-2-fluorophenoxy)-N,N-dimethyl-1-((6-(1H-pyrazol-3-ylamino)pyridin-2-yl)methyl)cyclohexanecarboxamide] |
| 3.5 nM | 710 nM | Cc1nnc([C@]2(Cc3cccc(Nc4cc[nH]n4)n3)CC[C@@H](Oc3cccc(C(F)(F)F)c3F)CC2)s1 [Example 28, 6-((trans-4-(2-fluoro-3-(trifluoromethyl)phenoxy)-1-(5-methyl-1,3,4-thiadiazol-2-yl)cyclohexyl)methyl)-N-1H-pyrazol-3-ylpyridin-2-amine] |
| 0.12 nM | 130 nM | O=C(O)[C@]1(Cc2cccc(Nc3nccs3)n2)CC[C@@H](Oc2cccc(Cl)c2)CC1 [Example 5, trans-4-(3-chlorophenoxy)-1-((6-(1,3-thiazol-2-ylamino)pyridin-2-yl)methyl)cyclohexanecarboxylic acid hydrochloride] |
| 0.15 nM | 200 nM | O=C(O)[C@]1(Cc2cccc(Nc3cc[nH]n3)n2)CC[C@@H](Oc2cccc(Cl)c2F)CC1 [Example 10, trans-4-(3-chloro-2-fluorophenoxy)-1-((6-(1H-pyrazol-3-ylamino)pyridin-2-yl)methyl)cyclohexanecarboxylic acid trifluoroacetate] |
| 0.17 nM | 130 nM | O=C(O)[C@]1(Cc2cccc(Nc3nccs3)n2)CC[C@@H](Oc2cccc(C(F)(F)F)c2)CC1 [Example 7, trans-1-((6-(1,3-thiazol-2-ylamino)pyridin-2-yl)methyl)-4-(3-(trifluoromethyl)phenoxy)cyclohexanecarboxylic acid hydrochloride] |
| 2.8 nM | > 1000 nM | N=c1[nH]nc([C@]2(Cc3cccc(Nc4cc[nH]n4)n3)CC[C@@H](Oc3cccc(C(F)(F)F)c3F)CC2)o1 [Example 21, 6-((trans-4-(2-fluoro-3-(trifluoromethyl)phenoxy)-1-(5-imino-4,5-dihydro-1,3,4-oxadiazol-2-yl)cyclohexyl)methyl)-N-1H-pyrazol-3-ylpyridin-2-amine trifluoroacetate] |
| 0.82 nM | 320 nM | CC(=O)N[C@]1(Cc2cccc(Nc3nccs3)n2)CC[C@@H](Oc2cccc(Cl)c2F)CC1 [Example 19, N-(trans-4-(3-chloro-2-fluorophenoxy)-1-((6-(1,3-thiazol-2-ylamino)pyridin-2-yl)methyl)cyclohexyl)acetamide] |
| 0.23 nM | 142 nM | Fc1c(O[C@H]2CC[C@](Cc3cccc(Nc4cc[nH]n4)n3)(c3n[nH]c(=S)o3)CC2)cccc1C(F)(F)F [Example 42, 5-(trans-4-(2-fluoro-3-(trifluoromethyl)phenoxy)-1-((6-(1H-pyrazol-3-ylamino)pyridin-2-yl)methyl)cyclohexyl)-1,3,4-oxadiazole-2(3H)-thione trifluoroacetate] |
| 0.87 nM | 690 nM | Cc1nnc([C@]2(Cc3cccc(Nc4cc[nH]n4)n3)CC[C@@H](Oc3cccc(Cl)c3F)CC2)o1 [Example 25, 6-((trans-4-(3-chloro-2-fluorophenoxy)-1-(5-methyl-1,3,4-oxadiazol-2-yl)cyclohexyl)methyl)-N-1H-pyrazol-3-ylpyridin-2-amine] |
